Assay results from publication PMC3020970, “K70Q Adds High-Level Tenofovir Resistance to “Q151M Complex” HIV Reverse Transcriptase through the Enhanced Discrimination Mechanism” (PLoS ONE, 2011).
Where “and” joins values, the source holds several entries; their conditions need not be identical. Equal entries are not always repeated. Where two headings read alike, the source gives them in different places. Marks after values point to notes of the source that are not given here.

Experiments:
Format in all cases: biochemical
[1] = target: T1, HIV-1 RT K70Q (Human immunodeficiency virus type 1 group M subtype B, UniProt P03366, K669Q); test: Pre-steady state kinetics of binding and incorporation
T1 construct: made in house; host or cells: Escherichia coli BL21
Experimental: The reactions were quenched at various times (10 ms to 5 s) by adding EDTA to a final concentration of 50 mM. The amounts of product (P18-dAMP) were quantitated and fit to the following burst equation: [drawing 1] (1) where A is the amplitude of the burst phase that represents the RT-DNA complex at the start of the reaction, k obs is the observed burst rate constant for dNTP incorporation, k ss is the steady state rate constant, and t is the reaction time. The rate constant of the linear phase (kcat) can be estimated by dividing the slope of the linear phase by the enzyme concentration. The active site concentration and template/primer binding affinity (KD-DNA) were determined by plotting the amplitude (A) against the concentration of template/primer. The data were fit using non-linear regression to a quadratic equation: [drawing 2] (2) where KD is the dissociation constant for the RT-DNA complex, and [RT] is the concentration of active polymerase molecules. Subsequent biochemical experiments were performed using corrected active site concentrations, [43].
HIV-1 RT (50 nM active sites) was pre-incubated with 50 nM T31/P18 in one syringe (Syringe A), whereas varying concentrations of dNTP and 10 mM MgCl2 were kept in another syringe (Syringe B). The solutions were rapidly mixed to initiate reactions, which were subsequently quenched at various times (5 ms to 10 s) by adding EDTA to a final concentration of 50 mM. The products from each quenched reaction were resolved, quantitated, and plotted as described above. The data were fit by non-linear regression to the burst equation (Eq 1).
To obtain the dissociation constant KD-dNTP for dNTP binding to the RT-DNA complex, the observed burst rates (kobs) were fit to the hyperbolic equation (Eq. 3) using nonlinear regression: [drawing 3] (3) where kpol is the optimal rate of dNTP incorporation.

[2] = target: T2, HIV-1 RT Q151Mc (Human immunodeficiency virus type 1 group M subtype B, UniProt P03366, A661V/F676L/F715Y/Q750M/V674I); test: Primer extension assay
T2 construct: made in house; host or cells: Escherichia coli BL21
Experimental: (§1) RT sequences coding for the p66 and p51 subunits of BH10 were cloned in the pRT dual vector, which is derived from pCDF-2 with LIC duet minimal adaptor (Novagen), using restriction sites PpuMI and SacI for the p51 subunit, and SacII and AvrII for the p66 subunit. RT was expressed in the Escherichia coli strain BL21 (Invitrogen) and purified by nickel affinity chromatography and MonoQ anion exchange chromatography. RT concentrations were determined spectrophotometrically based on absorption at […] using a calculated extinction coefficient (261,610 M^−1 cm^−1). The active site concentration of the various RT preparations was calculated as described below.
(§2) DNA oligomers were synthesized by Integrated DNA Technologies (Coralville, IA). An 18-nucleotide DNA primer fluorescently labeled with Cy3 at the 5′ end (P18; 5′-Cy3 GTC CCT GTT CGG GCG CCA-3′) and a 100-nucleotide DNA template (T100; 5′-TAGTGTGTGCCCGTCTGTTGTGTGACTCTGGTAACTAGAGATCCCTCAGACCCTTTTAGTCAGTGTGGAAAATCTCTAGCAGTGGCGCCCGAACAGGGAC-3′) were used in primer extension assays. An 18-nucleotide DNA primer 5′-labeled with Cy3 (P18; 5′-Cy3 GTC ACT GTT CGA GCA CCA-3′) and a 31-nucleotide DNA template (T31; 5′- CCATAGCTAGCATTGGTGCTCGAACAGTGAC-3′) were used in the ATP rescue assay and pre-steady state kinetic experiments.
(§3) The enzyme (20 nM active sites) was incubated with 20 nM template/primer at 37°C in a buffer containing 50 mM Tris-HCl, pH 7.8 and 50 mM NaCl. The DNA synthesis was initiated by the addition of 1 µM dNTP and 10 mM MgCl2. The primer extension assays were carried out in the presence or absence of varying concentrations of TFV-DP. The reactions were terminated after 15 min by adding equal volume of 100% formamide containing traces of bromophenol blue. The extension products were resolved on a 7 M urea-15% polyacrylamide gel, and visualized by phosphor-imaging (FLA 5100, Fujifilm, Tokyo). We followed standard protocols that utilize the Multi Gauge software (Fujifilm) to quantitate primer extension, [44]. The results from dose response experiments were plotted using Prism 4 (GraphPad Software Inc., CA) and IC50 values for TFV-DP were obtained at midpoint concentrations.

[3] = target: T1, HIV-1 RT K70Q; test: Primer extension assay
Experimental: as §1, §2, §3

[4] = target: T3, HIV-1 RT K70Q/Q151Mc (Human immunodeficiency virus type 1 group M subtype B, UniProt P03366, A661V/F676L/F715Y/K669Q/Q750M/V674I); test: Primer extension assay
T3 construct: made in house; host or cells: Escherichia coli BL21
Experimental: as §1, §2, §3

[5] = target: T4, HIV-1 RT WT (Human immunodeficiency virus type 1 group M subtype B, UniProt P03366); test: Primer extension assay
T4 construct: made in house; host or cells: Escherichia coli BL21
Experimental: as §1, §2, §3

[6] = with 3.5 mM ATP, read-out: IC50 of TFV-DP, with ATP
[7] = without ATP, read-out: IC50 of TFV-DP, without ATP

CC(Cn1cnc2c(N)ncnc21)OCP(=O)(O)OP(=O)(O)OP(=O)(O)O (stereo in doubt) [TFV-DP, tenofovir-diphosphate]
Selectivity (k pol/Kd)dATP/(k pol/Kd)TFV-DP ([1]; K70Q RT): 6.1 | k pol/Kd ([1]; K70Q RT): 360000 M⁻¹ s⁻¹ and 360000 ± 80000 M⁻¹ s⁻¹ | Reduced affinity for TFV than the WT enzyme ([1]; K70Q RT vs WT RT): more than 4.5 fold | k pol ([1]; K70Q RT, T31/P18, 37°C): 3.1 s⁻¹ and 3.1 ± 0.4 s⁻¹ | Kd ([1]; K70Q RT, binding to RT-DNA complex): 8600 ± 1500 nM | Excision enhancement due to ATP (IC50 with ATP/IC50 without ATP) [2]: 2.7 fold | IC50 [2, 6]: 4000 ± 341 nM | Fold increase in IC50 vs WT RT, with ATP ([2]; with ATP): (2.1) fold | Fold increase in IC50 vs WT RT, without ATP ([2]; without ATP): (2.3) fold | IC50 [2, 7]: 1500 ± 90 nM | Excision enhancement due to ATP (IC50 with ATP/IC50 without ATP) [3]: 2.9 fold | IC50 [3, 6]: 2310 ± 270 nM | Fold increase in IC50 vs WT RT, with ATP ([3]; with ATP): (1.2) fold | Fold increase in IC50 vs WT RT, without ATP ([3]; without ATP): (1.3) fold | IC50 [3, 7]: 802 ± 99 nM | Excision enhancement due to ATP (IC50 with ATP/IC50 without ATP) [4]: 2.9 fold | IC50 [4, 6]: 7000 ± 226 nM | Fold increase in IC50 vs WT RT, with ATP ([4]; with ATP): (3.8) fold | Fold increase in IC50 vs WT RT, without ATP ([4]; without ATP): (3.7) fold | IC50 [4, 7]: 2390 ± 353 nM | Excision enhancement due to ATP (IC50 with ATP/IC50 without ATP) [5]: 2.9 fold | IC50 [5, 6]: 1850 ± 197 nM | Fold increase in IC50 vs WT RT, with ATP ([5]; with ATP): (1) ^b fold | Fold increase in IC50 vs WT RT, without ATP ([5]; without ATP): (1) ^b fold | IC50 [5, 7]: 641 ± 83 nM
